Test results taken from article PMC11839852, “Preclinical comparison of (radio)lanthanides using mass spectrometry and nuclear imaging techniques: biodistribution of lanthanide-based tumor-targeting agents and lanthanides in ionic form” (European Journal of Nuclear Medicine and Molecular Imaging, 2024).
Marks after values point to notes of the source that are not given here.

How the values were obtained:
AR42J tumor cells = assay: In vitro cell uptake of lanthanide chloride salts; format: cell-based, rat
Procedure: A mixture of equal molar amounts of the lanthanide chloride salts (100 nM stock solutions of ^natLuCl3, ^natTbCl3, ^natGdCl3, and ^natEuCl3, diluted in saline with an adjusted pH value to 3.5‒4.0) was prepared to obtain a final concentration of 10 pmol/mL (2.5 pmol/mL per lanthanide salt) and tested with AR42J, PC-3 PIP and KB tumor cells according to the same protocol as described for the Ln-labeled biomolecules (Supplementary Material). Analogous in vitro cell uptake studies were also performed with lanthanide metal complexes of diethylenetriaminepentaacetic acid (DTPA, Sigma Aldrich Chemie, Steinheim, Germany) to obtain a final concentration of 10 pmol/mL (2.5 pmol/mL per lanthanide complex) (Supplementary Material).
Cell uptake studies were performed in triplicate in 3‒6 independent experiments and the results presented as the average ± standard deviation (SD). Data were normalized to the values measured for the ^175Lu-labeled tumor targeting agent or [^175Lu]LuCl3, which were set as 100% and zero was defined as 0%. Statistical significance of the normalized data was assessed for the comparison of the values obtained for terbium, gadolinium and europium analogues with those obtained for the lutetium counterparts by applying one-way ANOVA with the Dunnett’s post-test using GraphPad Prism software (version 8). A p-value of < 0.05 was considered statistically significant.
Methods: The same experimental setting as described for Ln-labeled biomolecules was applied to perform uptake and internalization studies with the lanthanide salts (LnCl3; Ln = ^natLu, ^natTb, ^natGd and ^natEu). The applied solution was a mixture of the four lanthanide salts yielding a final concentration of 0.4 µM. Of these mixtures, 25 μL were added to the corresponding well with tumor cells. The cells were incubated for 1 h and 4 h, respectively, at 37 °C and 5% CO2. After incubation, the tumor cells were treated as described for the Ln-labeled biomolecules and processed for the measurement with ICP-MS.

[1] = tested on: non-tumor-bearing immunocompetent FVB mice; assay: Biodistribution of lanthanide chloride salts LnCl3 (multiplexed ICP-MS); format: in vivo; conditions: for Tissue uptake: Blood / Tissue uptake: Bone / Tissue uptake: Brain / Tissue uptake: Heart / Tissue uptake: Intestines / Tissue uptake: Kidneys / Tissue uptake: Liver / Tissue uptake: Lung / Tissue uptake: Muscle / Tissue uptake: Pancreas / Tissue uptake: Salivary glands / Tissue uptake: Spleen / Tissue uptake: Stomach: non-tumor-bearing mice
[2] = 24 h p.i., estimated ratios (organ <0.5% ID/g)
[3] = 96 h p.i., estimated ratios (organ <0.5% ID/g)

- Organ ratios: Blood-to-bone ([1]; 1 h p.i.): 0.40 ± 0.05
- Organ ratios: Blood-to-liver ([1]; 1 h p.i.): 0.14 ± 0.02
- Organ ratios: Liver-to-bone ([1]; 1 h p.i.): 3.0 ± 0.4
- Tissue uptake: Blood ([1]; 1 h p.i.): 5.5 ± 0.6 % ID/g
- Tissue uptake: Bone ([1]; 1 h p.i.): 14 ± 2 % ID/g
- Tissue uptake: Brain ([1]; 1 h p.i.): 1.2 ± 0.9 % ID/g
- Tissue uptake: Heart ([1]; 1 h p.i.): 5.3 ± 2.1 % ID/g
- Tissue uptake: Intestines ([1]; 1 h p.i.): 2.6 ± 0.9 % ID/g
- Tissue uptake: Kidneys ([1]; 1 h p.i.): 8.1 ± 2.1 % ID/g
- Tissue uptake: Liver ([1]; 1 h p.i.): 41 ± 5 % ID/g
- Tissue uptake: Lung ([1]; 1 h p.i.): 4.8 ± 1.1 % ID/g
- Tissue uptake: Muscle ([1]; 1 h p.i.): 1.7 ± 1.0 % ID/g
- Tissue uptake: Pancreas ([1]; 1 h p.i.): 2.2 ± 1.0 % ID/g
- Tissue uptake: Salivary glands ([1]; 1 h p.i.): 2.7 ± 1.7 % ID/g
- Tissue uptake: Spleen ([1]; 1 h p.i.): 6.9 ± 1.6 % ID/g
- Tissue uptake: Stomach ([1]; 1 h p.i.): 6.0 ± 2.3 % ID/g
- Organ ratios: Liver-to-bone ([1]; 24 h p.i.): 2.7 ± 0.8
- Organ ratios: Blood-to-bone [1, 2]: <0.04^*
- Organ ratios: Blood-to-liver [1, 2]: <0.01^*
- Tissue uptake: Blood ([1]; 24 h p.i.): <0.5 % ID/g
- Tissue uptake: Bone ([1]; 24 h p.i.): 14 ± 3 % ID/g
- Tissue uptake: Brain ([1]; 24 h p.i.): <0.5 % ID/g
- Tissue uptake: Heart ([1]; 24 h p.i.): 1.0 ± 0.1 % ID/g
- Tissue uptake: Intestines ([1]; 24 h p.i.): 0.58 ± 0.06 % ID/g
- Tissue uptake: Kidneys ([1]; 24 h p.i.): 3.8 ± 0.9 % ID/g
- Tissue uptake: Lung ([1]; 24 h p.i.): 1.1 ± 0.2 % ID/g
- Tissue uptake: Muscle ([1]; 24 h p.i.): <0.5 % ID/g
- Tissue uptake: Pancreas ([1]; 24 h p.i.): <0.5 % ID/g
- Tissue uptake: Salivary glands ([1]; 24 h p.i.): 0.53 ± 0.17 % ID/g
- Tissue uptake: Spleen ([1]; 24 h p.i.): 5.6 ± 1.1 % ID/g
- Tissue uptake: Stomach ([1]; 24 h p.i.): 1.9 ± 0.5 % ID/g
- Tissue uptake: Liver ([1]; 24 h p.i., listed as europium): 37 ± 7 % ID/g
- Tissue uptake: Liver ([1]; 24 h p.i., listed as natEu): ~ 37 % ID/g
- Organ ratios: Liver-to-bone ([1]; 96 h p.i.): 1.3 ± 0.2
- Organ ratios: Blood-to-bone [1, 3]: <0.03^*
- Organ ratios: Blood-to-liver [1, 3]: <0.02^*
- Tissue uptake: Blood ([1]; 96 h p.i.): <0.5 % ID/g
- Tissue uptake: Bone ([1]; 96 h p.i.): 18 ± 3 % ID/g
- Tissue uptake: Brain ([1]; 96 h p.i.): <0.5 % ID/g
- Tissue uptake: Heart ([1]; 96 h p.i.): 0.83 ± 0.05 % ID/g
- Tissue uptake: Intestines ([1]; 96 h p.i.): 0.53 ± 0.04 % ID/g
- Tissue uptake: Kidneys ([1]; 96 h p.i.): 1.9 ± 0.1 % ID/g
- Tissue uptake: Liver ([1]; 96 h p.i.): 23 ± 1 % ID/g
- Tissue uptake: Lung ([1]; 96 h p.i.): 0.88 ± 0.15 % ID/g
- Tissue uptake: Muscle ([1]; 96 h p.i.): <0.5 % ID/g
- Tissue uptake: Pancreas ([1]; 96 h p.i.): <0.5 % ID/g
- Tissue uptake: Salivary glands ([1]; 96 h p.i.): <0.5 % ID/g
- Tissue uptake: Spleen ([1]; 96 h p.i.): 3.5 ± 0.3 % ID/g
- Tissue uptake: Stomach ([1]; 96 h p.i.): 2.3 ± 0.3 % ID/g
Compound: [Cl-].[Cl-].[Cl-].[Eu+3] [[^153Eu]EuCl3]
- Lanthanide uptake compared with [175Lu]LuCl3 (AR42J tumor cells): lower uptake
